Where two headings read alike, the source gives them in different places.
Key:
[1] = system: V79 (Chinese Hamster Lung Fibroblasts) cells; test: In vitro cytotoxicity assay (light EC50, Alamar blue); assay type: cell-based
Outline: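 V79 cells in phenol-free 5% FBS/DMEM exposed 24 h to photosensitizer at final 0.01–5.0 μM, six replicates, then washed and light-treated, with a dark plate as control. Survival by Alamar blue after 24 h dark incubation, read at 570/600 nm.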

[2] = system: normal skin of CD Hairless male rats; assay type: in vivo, rat
From the text: We tested metallo- and metal-free tetrapyrroles systemically (see following section) for normal skin response in relation to the pharmacodynamic distribution of the photosensitizers in CD hairless rats. The skin of CD hairless rats are poorly developed, often referred to as hyperkeratotic, with various sized cystic hair follicles containing concentric lamellar accumulations of keratinaceous material, which are often associated with enlarged sebaceous glands. It quickly became apparent that gallium tetrapyrroles induced a marked clearing of the hyperkeratotic lesions in the treatment areas on the hairless rats. In fact, this clearing could be induced without necrosis of the skin. No other metallotetrapyrrole type produced such effects. This observation led us to assess the metallotetrapyrrolic compounds for skin restructuring effects both topically and systemically and for their ability to reduce hair growth in the following animal models.
Photosensitizer normal skin response as well as skin healing response, was evaluated using CD Hairless male rats. Photosensitizers were administered in an liposomal egg yolk phospholipid formulation at 1, 1.5 and 2 μmol/kg body weight formulation per dose group as a single bolus intravenous injection given through a marginal tail vein using a 27 gauge needle and a 1 cc tuberculin syringe. Normal skin responses were evaluated by irradiating several spots on the skin of the rat with a 532 nm laser (150 mW/cm^2, 150J, 1 cm diameter) at 1, 6, 24, 48, and 96 hrs post injection. Normal skin responses were evaluated and documented. The time at which the last spot is observed at the concentration injected is reported in the far right hand column in Tables 3, 4, 5 and 6. Skin samples were taken for histological evaluation at days 1, 10, 20 and 22 post light treatment. Rats were housed under normal lighting and all study procedures involving the test article were conducted under light filtered through blue and green Roscolox light filters to prevent photoactivation or degradation of the drug.

[3] = system: normal uninjured rat carotid arteries (medial and adventitial cell populations); test: In vivo rat carotid artery acellularity after PDT; set-up: species or system Sprague Dawley rats; conditions: for Max % rat Artery Accelularity: Table 3; for Max % Rat Artery Accelularity: Table 4
Description: The acute effects of metallated photosensitizers, in response to light activation, to cause depletion of cell populations in the medial and adventitial layers of vessels was measured in normal uninjured rat carotid arteries. […] Shortly before the light treatment, the rats were anaesthetized with 3.5% isoflurane (Abbott Laboratories, IL, USA) and the femoral region of the right leg was shaved and cleaned. […] A direct arteriotomy was performed and a light balloon catheter ([…] Medical Technologies, Inc) was introduced into the vessel and advanced retrogradely into a non-manipulated region of the left common carotid artery via the abdominal aorta. […] After light treatment and removal of the catheter, the right femoral artery was tied off and the skin wound was closed. Rats were sacrificed three days post treatment as this corresponds to the known peak time that vascular cells, e.g., VSMC and myofibroblasts, proliferate and migrate in response to an injury. The area spanning both left and right carotid arteries and surrounding tissue was harvested, fixed, embedded in paraffin and sectioned. The tissues were stained with Hematoxylin and Eosin (Fisher Scientific, PA) and examined by light microscopy to histologically assess the cell population density in the medial and adventitial layers of the PDT-treated vessel wall. […] Metallo azaporphyrins with Ga, Zn, Al, Sn were excited at 575 nm, while Pt azaporphyrins were excited at 532 nm.

[4] = Table 3 porphyrins, 24 h drug incubation, 532 nm, 1.25 J/cm^2, read-out: In Vitro EC50 Light
[5] = drug dose 1 μMol, 50 J/cm^2, 3 days post treatment
[6] = Table 4 azaporphyrins, 575 nm (Pt azaporphyrins 532 nm), 1.25 J/cm^2, read-out: In Vitro EC(50)
[7] = drug dose 1 μMol, 575 nm (Pt 532 nm)

Row | Compound | Normal skin Response (1 μmol) ([2]; rat, in vivo) [h] | EC50 [1, 4] [nM] | Max % rat Artery Accelularity [3, 5] [%] | further results
1 | 8,13-diethyl-3,7,12,17-tetramethylporphrine-2,18-di(3′-hydroxypropyl) [Example 7a] |  | 400 |  | Normal skin Response (1 μmol) in hrs ([2]; rat, in vivo): none; Max % rat Artery Accelularity ([3]; drug dose 0.16 μMol): 7%; efficacy of free base porphyrins in the arterial rat model ([3]; at the time point, drug and light dose parameters used): poor efficacy; efficacy in the rat arterial model ([3]; drug doses up to 2 μmol/Kg): no efficacy
2 | CCC1=C(C)C2=[N+]3C1=Cc1c(C)c(CC)c4[n]1[Ga-2]31([Cl])[n]3c(c(C)c(CCC(=O)NCCOC)c3=CC3=[N+]1C(=C4)C(C)=C3CCC(=O)NCCOC)=C2 [Example 11, Gallium Chloride Mesoporphyrin di-(2′-methoxyethyl amide)] | 6 | 1900 | 30 | 
3 | COC(=O)CCC1=C(C)c2cc3[n-]c(cc4nc(cc5[n-]c(cc1n2)c(CCC(=O)OC)c5C)C(CN(C)C)=C4C)c(CN(C)C)c3C.[Ga+3].[OH-] [Example 12, Gallium Hydroxy 3,8-N,N-dimethylaminomethyl deuteroporphyrin dimethyl ester] |  | 500 | 50 | Normal skin Response (1 μmol) in hrs ([2]; rat, in vivo): None
4 | C=CC1=C(C)c2nc1cc1[n-]c(cc3nc(cc4[n-]c(n2)c(C)c4CCC(=O)OC)C(CCC(=O)OC)=C3C)c(C=C)c1C.[Cl-].[Ga+3] [Example 19, Gallium Chloride 5-azaprotoporphyrin IX Dimethyl Ester] |  |  |  | EC50 [1, 6]: 400 nM; Normal skin Response (1 μmol) ([2]; Table 4, time of last skin spot observed post injection, 1 μmol): 24 h; Max % Rat Artery Accelularity [3, 7]: 55%
5 | CCC1=C(CC)C2=[N+]3C1=Nc1c(CC)c(CC)c4[n]1[Ga-2]31([Cl])[n]3c(c(C)c(CCC(=O)OC)c3=CC3=[N+]1C(=C4)C(C)=C3CCC(=O)OC)=C2 [Example 21, Gallium Chloride 7,8,12,13-tetraethyl-12,17-dimethyl-10-azaporphyrin-2,18-di(propionic acid methyl ester)] | 24 |  |  | EC50 [1, 6]: 400 nM; Max % Rat Artery Accelularity [3, 7]: 60%
6 | CCC1=C(CC)C2=[N+]3C1=Nc1c(CC)c(CC)c4[n]1[Ga-2]31([Cl])[n]3c(c(C)c(CCC(=O)NC)c3=CC3=[N+]1C(=C4)C(C)=C3CCC(=O)NC)=C2 [Example 22, Gallium Chloride 7,8,12,13-tetraethyl-12,17-dimethyl-10-azaporphyrin-2,18-di(propionic acid methyl amide)] | 48 |  |  | EC50 [1, 6]: 450 nM; Max % Rat Artery Accelularity ([3]; drug dose 0.5 μMol): 50%
7 | CCOC(=O)CCCCC1=C(C)c2cc3[n-]c(cc4nc(cc5[n-]c(cc1n2)c(CCCCC(=O)OCC)c5C)C(C)=C4CC)c(C)c3CC.[Cl-].[Ga+3] [Example 28, Gallium Chloride 8,13-diethyl-3,7,12,17-tetramethylporphyrin-2,18-di(pentanoic acid ethyl ester)] | 6 | 400 | 80 | 
8 | CC1=Cc2cc3[n-]c(cc4nc(cc5[n-]c(cc1n2)cc5C)C(C)=C4CCC(=O)OCCCCl)c(CCC(=O)OCCCCl)c3C.[Cl-].[Ga+3] [Example 36, Gallium Chloride Deuteroporphyrin di (3-chloropropylester)] | 96 | 400 | 80 | 
9 | CC1=Cc2cc3[n-]c(cc4nc(cc5[n-]c(cc1n2)cc5C)C(C)=C4CCC(=O)OCCF)c(CCC(=O)OCCF)c3C.[Cl-].[Ga+3] [Example 37, Gallium Chloride Deuteroporphyrin di (2-fluoroethylester)] |  | 400 | 80 | Normal skin Response (1 μmol) ([2]; Table 3, time of last skin spot observed post injection, 1 μmol, 532 nm laser): 48 h
10 | CCC1=C(CC)C2=[N+]3C1=Nc1c(CC)c(CC)c4[n]1[Ga-2]31([OH])[n]3c(c(C)c(CCC(=O)[O-])c3=CC3=[N+]1C(=C4)C(C)=C3CCC(=O)[O-])=C2.[Na+].[Na+] [Example 88, Gallium Hydroxy 7,8,12,13-tetraethyl-12,17-dimethyl-10-azaporphyrin-2,18-di(propionic acid Sodium Salt)] |  |  |  | Normal skin Response (1 μmol) in hrs ([2]; rat, in vivo): None; normal skin response at the drug doses used ([2]; rat, in vivo): no observed normal skin response; acellularity following PDT of rat arteries at longer treatment times post injection ([3]; 16, 24 hrs post injection): significant acellularity; accelularity in rat artery at a four hour treatment point ([3]; 4 hrs post administration): 10%; Max % Rat Artery Accelularity ([3]; drug dose 4 μMol, 4 hrs): 10 (4 hrs) %; Max % Rat Artery Accelularity ([3]; drug dose 4 μMol, 24 hrs): 100 (24 hrs) %
11 | Platinum Mesoporphyrin di(2-ethoxyethanolamide) [Example 69] |  | 500 |  | Normal skin Response (1 μmol) in hrs ([2]; rat, in vivo): None

Further lines, with some results ahead:

Row | Normal skin Response (1 μmol) ([2]; rat, in vivo) [h] | Compound | EC50 [1, 4] [nM] | Max % rat Artery Accelularity [3, 5] [%] | further results
12 | 24 | CCOC(=O)CCC1=C(C)c2cc3[n-]c(cc4nc(cc5[n-]c(cc1n2)c(CCC(=O)OCC)c5C)C(CC)=C4C)c(CC)c3C.[Cl-].[Ga+3] [Example 2, Gallium Chloride Mesoporphyrin Diethyl Ester] | 490 | 80 | 
13 | 48 | CCOC(=O)CCC1=C(C)c2cc3[n-]c(cc4nc(cc5[n-]c(cc1n2)c(CCC(=O)OCC)c5C)C=C4C)cc3C.[Cl-].[Ga+3] [Example 5, Gallium Chloride Deuteroporphyrin Diethyl Ester] | 400 | 80 | 
14 | 96 | CC1=Cc2cc3[n-]c(cc4nc(cc5[n-]c(cc1n2)c(C)c5CCCO)C(CCCO)=C4C)cc3C.[Cl-].[Ga+3] [Example 8, Gallium Chloride 8,13-desvinyl-3,7,12,17-tetramethylporphyrin-2,18-di(3′-hydroxypropyl)] | 400 | 80 | 
15 | 6 | C=Cc1c(C)c2cc3nc(c(CC(=O)OC)c4[n-]c(cc5nc(cc1[n-]2)C(C)=C5CC)c(C)c4C(=O)NC)C(CCC(=O)OC)=C3C.[Cl-].[Ga+3] [Example 14, Gallium Chloride Chloroporphyrin e6 Dimethyl Ester 12-methylamide] |  |  | EC50 ([1]; Table 5 plant derived gallium porphyrins, light, read-out: In Vitro EC(50)): 290 nM; Max % Rat Artery Acceluarity ([3]; Table 5, drug dose 1 μMol): 65%
16 | 96 | CCC1=C(C)C2=[N+]3C1=Cc1c(C)c(CC)c4[n]1[Ga-2]31([Cl])[n]3c(c(C)c(CCC(=O)N(CC)CC)c3=CC3=[N+]1C(=C4)C(C)=C3CCC(=O)N(CC)CC)=C2 [Example 15, Gallium Chloride Mesoporphyrin N,N-diethylamide] | 450 | 60 | 
17 | 96 | CCC1=C(C)c2cc3[n-]c(cc4nc(cc5[n-]c(cc1n2)c(C)c5CCC(=O)OC)C(CCC(=O)OC)=C4C)c(C)c3CC.[Cl-].[In+3] [Example 31, Indium Chloride Mesoporphyrin Dimethyl Ester] | 70 | 90 | 
18 | 24 | CCC1=C(C)c2cc3[n-]c(cc4nc(cc5[n-]c(cc1n2)c(C)c5CCC(=O)OC)C(CCC(=O)OC)=C4C)c(C)c3CC.[Zn+2] [Example 33, Zinc Mesoporphyrin Dimethyl Ester] |  | 0 | 
19 | 24 | CCC1=C(C)c2cc3[n-]c(cc4nc(cc5[n-]c(cc1n2)c(C)c5CCC(=O)OCCF)C(CCC(=O)OCCF)=C4C)c(C)c3CC.[Cl-].[Ga+3] [Example 34, Gallium Chloride Mesoporphyrin di (2-fluoroethylester)] | 400 | 80 | 
20 | 96 | CCC1=C(C)c2cc3[n-]c(cc4nc(cc5[n-]c(cc1n2)c(C)c5CC)C(C)=C4CCC(=O)OCCCCl)c(CCC(=O)OCCCCl)c3C.[Cl-].[Ga+3] [Example 35, Gallium Chloride Mesoporphyrin di (3-chloropropylester)] | 400 | 80 | 
